Reference: patent EP4600260A1, “KERATIN YK93-4, AND PREPARATION METHOD THEREFOR, PHARMACEUTICAL COMPOSITION THEREOF AND USE THEREOF” (INSTITUTE OF MATERIA MEDICA, CHINESE ACADEMY OF MEDICAL …, priority 2022, dated 2024)

Test system: EL-4 lymphoma
Details: cyclophosphamide 100 mg/kg, intraperitoneal, single; routine blood analysis, P<0.05
Method: Preparation of experimental animals: The experimental animals were adapted to the experimental environment (temperature 22°C±2°C, relative humidity 50%±2%) for 1 day.
Subcutaneous inoculation of EL-4 cell suspension to replicate a mouse lymphoma model: The EL-4 tumor tissue was ground into a suspension using a glass homogenizer, the tumor suspension was aspirated with a syringe, the number of live cells was calculated, the cell concentration was adjusted to 2.0*10^6/ml with physiological saline, and then the suspension was injected into the left armpit of mice with 0.2 ml/mouse. […] On the day of treatment, weight was measured, 20µl of blood was obtained from the orbital blood and the routine blood analysis was performed. The tumor blocks were stripped, weighed and photographed, and the tumor suppression rate was calculated.
The tumor suppression rate [(The average weight of the tumor in the normal control group - the average weight of the tumor in the experimental group) / The average weight of the tumor in the normal control group × 100 %] and average value, standard deviation and standard errors of tumor weight were calculated. The data from the groups were compared with each other by T.TEST, and P<0.05 was considered as a significant difference.

In the case of O=P1(N(CCCl)CCCl)NCCCO1 (stereo not shown) [cyclophosphamide, Cyclophosphamide], the “number of leukocytes, lymphocytes, monocytes, and neutrophils” value is reported as “significantly reduced”.
